According to ChEMBL document CHEMBL1157694, “Synthesis of a new cytotoxic cephalostatin/ritterazine analogue from hecogenin and 22-epi-hippuristanol” (2010):

Assays:
Type in all cases: functional
[1] = tested on: MDA-MB-231; test: Growth inhibition of human MDA-MB-231 cells after 72 hrs by sulforhodamine B assay; details: MDA-MB-231, 72 h
[2] = tested on: A549; test: Growth inhibition of human A549 cells after 72 hrs by sulforhodamine B assay; details: A549, 72 h
[3] = tested on: HT-29; test: Growth inhibition of human HT-29 cells after 72 hrs by sulforhodamine B assay; details: HT-29, 72 h

| SMILES | GI50 [1] [nM] | GI50 [2] [nM] | GI50 [3] [nM] |
| --- | --- | --- | --- |
| C[C@H]1CC[C@@]2(OC1)O[C@H]1C[C@H]3[C@@H]4CC[C@H]5Cc6nc7c(nc6C[C@]5(C)[C@H]4CC(=O)[C@]3(C)[C@H]1[C@@H]2C)C[C@@H]1CC[C@H]2[C@@H]3C[C@@H]4O[C@]5(C[C@H](C)C(C)(C)O5)[C@](C)(O)[C@@H]4[C@@]3(C)CC(=O)[C@@H]2[C@@]1(C)C7 | 2000 | 1600 | 1600 |
| C[C@H]1CC[C@@]2(OC1)O[C@H]1C[C@H]3[C@@H]4CC[C@H]5Cc6nc7c(nc6C[C@]5(C)[C@H]4CC(=O)[C@]3(C)[C@H]1[C@@H]2C)C[C@@H]1CC[C@@H]2[C@H](CC(=O)[C@]3(C)[C@@H]4[C@H](C[C@@H]23)O[C@]2(CC[C@H](C)CO2)[C@H]4C)[C@@]1(C)C7 | 2600 | 1700 | 2100 |
| C[C@H]1C[C@]2(O[C@H]3C[C@H]4[C@@H]5CC[C@H]6C[C@H](O)CC[C@]6(C)[C@H]5[C@@H](O)C[C@]4(C)[C@H]3[C@@]2(C)O)OC1(C)C [EPIHIPPURISTANOL] | 5600 | 3200 | 4500 |
